Laboratory results as given in patent US5114935A, “Substituted 6-benzyl-2H-3,4,5,6-tetrahydro-(1,3)-oxazines” (Dr. Karl Thomae GmbH, priority 1989, dated 1992).
Structures can show the parent of a compound that is named as a salt. Where two headings read alike, the source gives them in different places.

Key:
[1] = system: mechanically provoked coughing; assay: Antitussive activity: mechanically provoked coughing in anaesthetised cats; type: in vivo, cat; settings: for ED50: Felis catus, iv, read-out: ED50 after parallel adjustment (50% reduction in the number of coughs)
Method: The antitussive activity of the compound 6-(p-chlorobenzyl)-3,5,6-trimethyl-2H-3, 4, 5, 6-tetrahydro-oxazine (1,3)-hydrochloride was tested as follows:
33 male and female cats with a body weight of 3.4 to 4.5 kg were anaesthetised with pentobarbital-Na (45 mg/kg as an initial bolus i.p. and then, spread throughout the experiment, several times as required, 7.5 or 15 mg/kg i.v.). Care was taken to keep the animals at about stage 1 to 2 (Guedel) of the tolerance stage.
Coughing fits were provoked mechanically by the insertion of a plastic catheter with a rounded tip, diameter about 1.5 mm, into the trachea as far as the bifurcation. At each time of irritation, a series of 3 stimuli were carried out at intervals of about 30 seconds. The coughing fits were always provoked 5, 25 and 45 minutes after administration of the test substance or vehicle.
The test substance was administered as a solution in 0.9% NaCl solution through a catheter in the V. femoralis. The injected volume was not more than 0.5 ml/kg. Before administration of the substance, the effect of the vehicle was tested on each animal.
By linear regression analysis and linear covariance analysis, the ED50 value (50% reduction in the number of coughs) was determined after parallel adjustment (Table 2).

opiate receptors = assay: Test of Binding to the Opiate Receptor: inhibition of 3H-diprenorphine binding; parameters: species or system rat; settings: up to 100 μM; 0.5 nM 3H-diprenorphine

CC1CN(C)COC1(C)Cc1ccc(Cl)cc1 (stereo not drawn) [Active substance, 6-(p-chloro-benzyl)-3,5,6-trimethyl-2H-3,4,5,6-tetrahydro-oxazine(1,3)-hydrochloride]
Percentage inhibition of coughing, MW ± SE ([1]; 0.5 mg/kg i.v., after 5 minutes, n=5): 26.7 ± 8.5%
Percentage inhibition of coughing, MW ± SE ([1]; 0.5 mg/kg i.v., after 25 minutes, n=5): 16.7 ± 10.5%
Percentage inhibition of coughing, MW ± SE ([1]; 0.5 mg/kg i.v., after 45 minutes, n=5): 23.3 ± 10.0%
Percentage inhibition of coughing, MW ± SE ([1]; 0.705 mg/kg i.v., after 5 minutes, n=5): 23.3 ± 6.7%
Percentage inhibition of coughing, MW ± SE ([1]; 0.705 mg/kg i.v., after 25 minutes, n=5): 13.3 ± 6.2%
Percentage inhibition of coughing, MW ± SE ([1]; 0.705 mg/kg i.v., after 45 minutes, n=5): 13.3 ± 3.3%
Percentage inhibition of coughing, MW ± SE ([1]; 1.0 mg/kg i.v., after 5 minutes, n=5): 33.3 ± 18.3%
Percentage inhibition of coughing, MW ± SE ([1]; 1.0 mg/kg i.v., after 25 minutes, n=5): 40.0 ± 16.3%
Percentage inhibition of coughing, MW ± SE ([1]; 1.0 mg/kg i.v., after 45 minutes, n=5): 36.7 ± 3.3%
Percentage inhibition of coughing, MW ± SE ([1]; 1.41 mg/kg i.v., after 5 minutes, n=5): 63.3 ± 13.3%
Percentage inhibition of coughing, MW ± SE ([1]; 1.41 mg/kg i.v., after 25 minutes, n=5): 53.3 ± 16.2%
Percentage inhibition of coughing, MW ± SE ([1]; 1.41 mg/kg i.v., after 45 minutes, n=5): 50.0 ± 18.3%
Percentage inhibition of coughing, MW ± SE ([1]; 2.0 mg/kg i.v., after 5 minutes, n=5): 33.3 ± 17.5%
Percentage inhibition of coughing, MW ± SE ([1]; 2.0 mg/kg i.v., after 25 minutes, n=5): 53.3 ± 14.3%
Percentage inhibition of coughing, MW ± SE ([1]; 2.0 mg/kg i.v., after 45 minutes, n=5): 36.7 ± 17.0%
Percentage inhibition of coughing, MW ± SE ([1]; 2.83 mg/kg i.v., after 5 minutes, n=5): 36.7 ± 14.3%
Percentage inhibition of coughing, MW ± SE ([1]; 2.83 mg/kg i.v., after 25 minutes, n=5): 43.3 ± 13.5%
Percentage inhibition of coughing, MW ± SE ([1]; 2.83 mg/kg i.v., after 45 minutes, n=5): 40.0 ± 11.3%
Percentage inhibition of coughing, MW ± SE ([1]; 4.0 mg/kg i.v., after 5 minutes, n=5): 60.0 ± 11.3%
Percentage inhibition of coughing, MW ± SE ([1]; 4.0 mg/kg i.v., after 25 minutes, n=5): 63.3 ± 13.3%
Percentage inhibition of coughing, MW ± SE ([1]; 4.0 mg/kg i.v., after 45 minutes, n=5): 46.7 ± 9.7%
Percentage inhibition of coughing, MW ± SE ([1]; 5.64 mg/kg i.v., after 5 minutes, n=5): 70.0 ± 20.0%
Percentage inhibition of coughing, MW ± SE ([1]; 5.64 mg/kg i.v., after 25 minutes, n=5): 70.0 ± 20.0%
Percentage inhibition of coughing, MW ± SE ([1]; 5.64 mg/kg i.v., after 45 minutes, n=5): 63.3 ± 17.0%
Percentage inhibition of coughing, MW ± SE ([1]; 8.0 mg/kg i.v., after 5 minutes, n=3): 44.4 ± 29.4%
Percentage inhibition of coughing, MW ± SE ([1]; 8.0 mg/kg i.v., after 25 minutes, n=3): 50.0 ± 25.5%
Percentage inhibition of coughing, MW ± SE ([1]; 8.0 mg/kg i.v., after 45 minutes, n=3): 44.4 ± 20.0%
ED50 ([1]; 5 min, 5 minutes after administration): 2.6 mg/kg
ED50 ([1]; 25 min, 25 minutes after administration): 2.4 mg/kg
ED50 ([1]; 0.75 h, 45 minutes after administration): 3.2 mg/kg
effect on the number of mechanically provoked coughs ([1]; intravenously, 0.5 to 8 mg/kg): reducing the number of mechanically provoked coughs
cough-suppressing effect, doses and testing times at which observed ([1]; intravenously, 0.5 to 8 mg/kg, 5, 25 and 45 minutes): observed from the lowest administered dose upwards, at every testing time
inhibition of 3H-diprenorphine binding (opiate receptors): no inhibition
